Target: T1, human PAD4 (Homo sapiens, UniProt Q9UM07)
T1 construct: human PAD4 (NM_012387), A2P663, was PCR amplified; His-SUMO (N, cleaved yes); made in house; host or cells: E. coli BL21(DE3)
Experiment: In vitro PAD4 BAEE biochemical assay
Conditions: human PAD4, BAEE substrate; 5 nM PAD4, 2 mM calcium chloride, 3 mM BAEE; geometric mean of multiple experiments
Outline: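 Ammonia release from BAEE deimination monitored by o-phthalaldehyde amine coupling (1 h, 25 °C) after EDTA stop. Final conditions: 5 nM tag-free recombinant human PAD4 (E. coli), 2 mM CaCl2, 3 mM BAEE, pH 7.6 MOPS with DTT; 30 min compound preincubation, then 2 h reaction at 25 °C.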

T1 sequence (Q9UM07 2-663): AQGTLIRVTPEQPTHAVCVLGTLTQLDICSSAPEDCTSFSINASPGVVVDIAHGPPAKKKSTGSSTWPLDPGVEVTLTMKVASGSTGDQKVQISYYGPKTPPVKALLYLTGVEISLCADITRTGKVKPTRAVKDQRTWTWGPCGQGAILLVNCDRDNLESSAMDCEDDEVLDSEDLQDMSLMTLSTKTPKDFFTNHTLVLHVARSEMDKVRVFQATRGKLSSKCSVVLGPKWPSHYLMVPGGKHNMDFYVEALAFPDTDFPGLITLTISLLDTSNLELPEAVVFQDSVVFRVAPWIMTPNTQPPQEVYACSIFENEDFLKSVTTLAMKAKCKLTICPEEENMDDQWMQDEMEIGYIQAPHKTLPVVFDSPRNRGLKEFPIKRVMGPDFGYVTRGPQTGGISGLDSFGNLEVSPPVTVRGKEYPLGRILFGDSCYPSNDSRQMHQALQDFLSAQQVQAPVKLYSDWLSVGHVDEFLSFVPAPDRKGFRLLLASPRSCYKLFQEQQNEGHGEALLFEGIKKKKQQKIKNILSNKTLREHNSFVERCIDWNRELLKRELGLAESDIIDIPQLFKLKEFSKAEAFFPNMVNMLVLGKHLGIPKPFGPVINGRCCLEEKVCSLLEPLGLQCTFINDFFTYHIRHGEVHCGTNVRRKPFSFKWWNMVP

| SMILES | IC50 [nM] |
| --- | --- |
| COc1cc(C(=O)N2[C@H]3CC[C@@H]2[C@H](N)C3)cc2nc(-c3cc4ccc([C@@H](C)N5CCOCC5)nc4n3CC3CC3)c(C)n12 [Example 277, [(1~{R},2~{R},4~{S})-2-amino-7-azabicyclo [2.2.1]heptan-7-yl]-[2-[1-(cyclopropylmethyl)-6-[(1~{R})-1-morpholin-4-ylethyl]pyrrolo[2,3-b]pyridin-2-yl]-5-methoxy-3-methylimidazo[1,2-a]pyridin-7-yl]methanone] | 191 |
| COc1cc(C(=O)N2[C@H]3CC[C@@H]2[C@H](N)C3)cc2nc(-c3cc4ccc([C@@H](C)NC(=O)N(C)c5ccccc5)nc4n3CC3CC3)c(C)n12 [Example 242, 3-[(1~{R})-1-[2-[7-[(1~{R},2~{R},4~{S})-2-amino-7-azabicyclo[2.2.1]heptane-7-carbonyl]-5-methoxy-3-methylimidazo [1,2-a]pyridin-2-yl]-1-(cyclopropylmethyl)pyrrolo [2,3-b]pyridin-6-yl]ethyl]-1-methyl-1-phenylurea] | 238 |
| COc1cc(C(=O)N2[C@H]3CC[C@@H]2[C@H](N)C3)cc2nc(-c3cc4ccc(C(NC(=O)C(C)(C)C)C(F)(F)F)nc4n3CC3CC3)c(C)n12 (stereo partly drawn) [Example 192, ~{N}-[1-[2-[7-[(1~{R},2~{R},4~{S})-2-amino-7-azabicyclo[2.2.1]heptane-7-carbonyl]-5-methoxy-3-methylimidazo [1,2-a]pyridin-2-yl]-1-(cyclopropylmethyl)pyrrolo [2,3-b]pyridin-6-yl]-2,2,2-trifluoroethyl]-2,2-dimethylpropanamide] | 689 |
| COc1cc(C(=O)N2[C@H]3CC[C@@H]2[C@H](N)C3)cc2nc(-c3cc4ccc([C@@H](C)NC(=O)C5CC(F)(F)C5)nc4n3CC3CC3)c(C)n12 [Example 85, ~{N}-[(1~{R})-1-[2-[7-[(1~{R},2~{R},4~{S})-2-amino-7-azabicyclo[2.2.1]heptane-7-carbonyl]-5-methoxy-3-methylimidazo [1,2-a]pyridin-2-yl]-1-(cyclopropylmethyl)pyrrolo [2,3-b]pyridin-6-yl]ethyl]-3,3-difluorocyclobutane-1-carboxamide] | 28.7 |
| COc1cc(C(=O)N2[C@H]3CC[C@@H]2[C@H](N)C3)cc2nc(-c3cc4ccc([C@@H](C)Nc5ncc(F)cn5)nc4n3CC3CC3)c(C)n12 [Example 264, [(1~{R},2~{R},4~{S})-2-amino-7-azabicyclo [2.2.1]heptan-7-yl]-[2-[1-(cyclopropylmethyl)-6-[(1~{R})-1-[(5-fluoropyrimidin-2-yl)amino]ethyl]pyrrolo[2,3-b]pyridin-2-yl]-5-methoxy-3-methylimidazo[1,2-a]pyridin-7-yl]methanone] | 134 |
| COCc1nn(C)cc1C(=O)N[C@H](C)c1ccc2cc(-c3nc4cc(C(=O)N5[C@H]6CC[C@@H]5[C@H](N)C6)cc(OC)n4c3C)n(CC3CC3)c2n1 [Example 23, ~{N}-[(1~{R})-1-[2-[7-[(1~{R},2~{R},4~{S})-2-amino-7-azabicyclo [2.2.1]heptane-7-carbonyl]-5-methoxy-3-methylimidazo [1,2-a]pyridin-2-yl]-1-(cyclopropylmethyl)pyrrolo[2,3-b]pyridin-6-yl]ethyl]-3-(methoxymethyl)-1-methylpyrazole-4-carboxamide] | 61.3 |
| COc1cc(C(=O)N2[C@H]3CC[C@@H]2[C@H](N)C3)cc2nc(-c3cc4ccc([C@@H](C)NC(=O)N5CCOC[C@H]5C(F)(F)F)nc4n3CC3CC3)c(C)n12 [Example 200, (3~{S})-~{N}-[(1~{R})-1-[2-[7-[(1~{R},2~{R},4~{S})-2-amino-7-azabicyclo[2.2.1]heptane-7-carbonyl]-5-methoxy-3-methylimidazo [1,2-a]pyridin-2-yl]-1-(cyclopropylmethyl)pyrrolo [2,3-b]pyridin-6-yl]ethyl]-3-(trifluoromethyl)morpholine-4-carboxamide] | 44.1 |
| CCOC(=O)N(C)c1ccc2cc(-c3nc4cc(C(=O)N5[C@H]6CC[C@@H]5[C@H](N)C6)cc(OC)n4c3C)n(CC3CC3)c2n1 [Example 466, ethyl~{N}-[2-[7-[(1~{R},2~{R},4~{S})-2-amino-7-azabicyclo[2.2.1]heptane-7-carbonyl]-5-methoxy-3-methylimidazo [1,2-a]pyridin-2-yl]-1-(cyclopropylmethyl)pyrrolo [2,3-b]pyridin-6-yl]-~{N}-methylcarbamate] | 143 |
| COc1cc(C(=O)N2C[C@H]3C[C@H](OC)[C@@H]2[C@@H]3N)cc2nc(-c3cc4ccc(N(C(F)F)S(C)(=O)=O)nc4n3CC3CC3)c(C)n12 [Example 372, N-[2-[7-[(1S,4R,6S,7R)-7-amino-6-methoxy-2-azabicyclo[2.2.1]heptane-2-carbonyl]-5-methoxy-3-methyl-imidazo [1,2-a]pyridin-2-yl]-1-(cyclopropylmethyl)pyrrolo [2,3-b]pyridin-6-yl]-N-(difluoromethyl) methanesulfonamide] | 2000 |
| COc1cc(C(=O)N2[C@H]3CC[C@@H]2[C@H](N)C3)cc2nc(-c3cc4ccc([C@@H](C)NC(=O)[C@@H]5CC5(F)F)nc4n3CC3CC3)c(C)n12 [Example 130, (1~{S})-~{N}-[(1~{R})-1-[2-[7-[(1~{R},2~{R},4~{S})-2-amino-7-azabicyclo [2.2.1]heptane-7-carbonyl]-5-methoxy-3-methylimidazo [1,2-a]pyridin-2-yl]-1-(cyclopropylmethyl)pyrrolo [2,3-b]pyridin-6-yl]ethyl]-2,2-difluorocyclopropane-1-carboxamide] | 47.2 |

The remaining lines, values ahead:

| IC50 [nM] | SMILES |
| --- | --- |
| 81.3 | COc1cc(C(=O)N2[C@H]3CC[C@@H]2[C@H](N)C3)cc2nc(-c3cc4ccc([C@@H](C)NC(=O)N5CC(C(N)=O)C5)nc4n3CC3CC3)c(C)n12 [Example 225, 1-~{N}-[(1~{R})-1-[2-[7-[(1~{R},2~{R},4~{S})-2-amino-7-azabicyclo[2.2.1]heptane-7-carbonyl]-5-methoxy-3-methylimidazo [1,2-a]pyridin-2-yl]-1-(cyclopropylmethyl)pyrrolo [2,3-b]pyridin-6-yl]ethyl]azetidine-1,3-dicarboxamide] |
| 41 | COc1cc(C(=O)N2[C@H]3CC[C@@H]2[C@H](N)C3)cc2nc(-c3cc4ccc([C@@H](C)NC(=O)C5CCOCC5)nc4n3CC3CC3)c(C)n12 [Example 150, ~{N}-[(1~{R})-1-[2-[7-[(1~{R},2~{R},4~{S})-2-amino-7-azabicyclo[2.2.1]heptane-7-carbonyl]-5-methoxy-3-methylimidazo [1,2-a]pyridin-2-yl]-1-(cyclopropylmethyl)pyrrolo [2,3-b]pyridin-6-yl]ethyl] oxane-4-carboxamide] |
| 933 | COc1cc(C(=O)N2CCC[C@@H](N)C2)cc2nc(-c3cc4ccc(C5CC5C(=O)N(C)C)nc4n3CC3CC3)c(C)n12 (stereo partly drawn) [Example 533, 2-[2-[7-[(3~{R})-3-aminopiperidine-1-carbonyl]-5-methoxy-3-methylimidazo[1,2-a]pyridin-2-yl]-1-(cyclopropylmethyl)pyrrolo[2,3-b]pyridin-6-yl]-~{N},~{N}-dimethylcyclopropane-1-carboxamide] |
| 161 | COc1cc(C(=O)N2[C@@H]3CC[C@@H](N)[C@H]2CC3)cc2nc(-c3cc4ccc([C@@H](C)NC(=O)C(C)(C)C)nc4n3CC3CC3)c(C)n12 [Example 170, ~{N}-[(1~{R})-1-[2-[7-[(1~{R},2~{R},5~{R})-2-amino-8-azabicyclo[3.2.1]octane-8-carbonyl]-5-methoxy-3-methylimidazo [1,2-a]pyridin-2-yl]-1-(cyclopropylmethyl)pyrrolo [2,3-b]pyridin-6-yl]ethyl]-2,2-dimethylpropanamide] |
| 33.4 | COc1cc(C(=O)N2[C@H]3CC[C@@H]2[C@H](N)C3)cc2nc(-c3cc4ccc([C@@H](C)NC(=O)c5cnco5)nc4n3CC3CC3)c(C)n12 [Example 117, ~{N}-[(1~{R})-1-[2-[7-[(1~{R},2~{R},4~{S})-2-amino-7-azabicyclo[2.2.1]heptane-7-carbonyl]-5-methoxy-3-methylimidazo [1,2-a]pyridin-2-yl]-1-(cyclopropylmethyl)pyrrolo [2,3-b]pyridin-6-yl]ethyl]-1,3-oxazole-5-carboxamide] |
| 30.1 | COc1cc(C(=O)N2[C@H]3CC[C@@H]2[C@H](N)C3)cc2nc(-c3cc4ccc([C@@H](C)NC(=O)c5cccnc5)nc4n3CC3CC3)c(C)n12 [Example 120, ~{N}-[(1~{R})-1-[2-[7-[(1~{R},2~{R},4~{S})-2-amino-7-azabicyclo[2.2.1]heptane-7-carbonyl]-5-methoxy-3-methylimidazo [1,2-a]pyridin-2-yl]-1-(cyclopropylmethyl)pyrrolo [2,3-b]pyridin-6-yl]ethyl]pyridine-3-carboxamide] |
| 106 | COc1cc(C(=O)N2[C@H]3CC[C@@H]2[C@H](N)C3)cc2nc(-c3cc4ccc([C@@H](C)NC(=O)C5(C)CCOCC5)nc4n3CC3CC3)c(C)n12 [Example 135, ~{N}-[(1~{R})-1-[2-[7-[(1~{R},2~{R},4~{S})-2-amino-7-azabicyclo[2.2.1]heptane-7-carbonyl]-5-methoxy-3-methylimidazo [1,2-a]pyridin-2-yl]-1-(cyclopropylmethyl)pyrrolo [2,3-b]pyridin-6-yl]ethyl]-4-methyloxane-4-carboxamide] |
| 39.2 | COc1cc(C(=O)N2[C@H]3CC[C@@H]2[C@H](N)C3)cc2nc(-c3cc4ccc([C@@H](C)NC(=O)c5cnn(C)c5Cl)nc4n3CC3CC3)c(C)n12 [Example 75, ~{N}-[(1~{R})-1-[2-[7-[(1~{R},2~{R},4~{S})-2-amino-7-azabicyclo[2.2.1]heptane-7-carbonyl]-5-methoxy-3-methylimidazo [1,2-a]pyridin-2-yl]-1-(cyclopropylmethyl)pyrrolo [2,3-b]pyridin-6-yl]ethyl]-5-chloro-1-methylpyrazole-4-carboxamide] |
